# Experimental data taken from PMC11392399, “The final walk with preptin” (PLOS ONE, 2024).
# Legend:
# [1] = tested on: intracellular calcium in U-2 OS osteoblasts; assay: Changes in intracellular calcium, U-2 OS osteoblasts; format: cell-based, human; details: U-2 OS cells; 10^−4 M; Fluo-8 fluorescence, (Fmax−F0)/F0; one-way ANOVA
# Description: The day before the experiment, U-2 OS, MC3T3-E1, MIN6 and cAMP-HEK cells were seeded 6 000 (for osteoblastic cell lines U-2 OS, MC3T3-E1), 10 000 (for cAMP-HEK cells) or 30 000 (MIN6) cells per well in a black 384-well format micro plate with transparent bottom (Cat.#: 142761, Nunc, Thermo Fisher Scientific, USA). On the next day, the cultivation media was exchanged for assay buffer, consisting of HBSS (Cat.#: H6648-500ML, Sigma-Aldrich, Merck, Germany), 20 mM HEPES (Cat.#: L0180-100, Biowest, France), 2.5 mM Probenecid (Cat.#: P8761, Sigma-Aldrich, Merck, Germany), adjusted for pH 7.4 and supplemented with 4.77 μM CalciFluor™ Fluo-8, AM (Cat.#: 1345980-40-6, Santa Cruz Biotechnology, USA). After 45 min incubation with assay buffer in 37°C and 5% CO2, the cells were incubated at RT in a dark place for another 15 minutes. After this time, preptin and its analogs were added by the Agilent Bravo Automated Liquid Handling Platform (Agilent Technologies, USA). The kinetics were measured by the Spark® multimode reader from Tecan (Tecan Group Ltd., Switzerland) for 10 min (approximately 45 cycles, excitation 485 nm, emission 535 nm, band width 10 nm). Before each kinetics, the background fluorescence (F0) was measured and the result was calculated as (Fmax−F0)/F0, where Fmax corresponds to the maximum response upon stimulation by the compounds. Each compound was tested in concentration 10^−4 M.
# [2] = tested on: mouse β-cell line βTC6-F7; details: permanent mouse β-cell line βTC6-F7; ref [8] Buchanan et al.; cited from earlier work
# From the text: Cheng et al. observed an increase in insulin secretion at a glucose concentration of 25 mmol/l and Buchanan et al. used 10 mmol/l.
# [3] = tested on: MIN6 pancreatic beta cells; assay: Stimulation of insulin secretion, radioimmunoassay; format: cell-based, mouse; details: basal glucose 10 mmol/l, various, very high concentrations of preptin, 1 h at 37°C, RIA
# Description: MIN6 cells were seeded at a density of 100 000 cells/well in 24-well culture dishes and grown for 3 days in 1 ml of complete medium. Before experiments, cells were maintained for 2 h in a glucose-free medium. Thereafter, the cells were washed twice and preincubated for 2 h at 37°C in 0.4 ml glucose-free Krebs-Ringer bicarbonate HEPES (KRBH) buffer of the following composition: 120 mM NaCl, 4.6 mM KCl, 2 mM CaCl2, 5 mM NaHCO3, 1 mM MgSO4, 0.4 mM KH2PO4, 0.15 mM Na2HPO4, BSA (0.2 % w/v), and 20 mM HEPES with pH value adjusted to 7.4 with NaOH. Next, the buffer was removed from cells and a new portion of 0.4 ml of glucose-free KRBH buffer, but with a respective concentration of glucose and/or preptin, was added to the cells, which were incubated for 1 h at 37°C. The cells were stimulated with various concentrations of D-glucose (0 and 10 mM) and the effects of various concentrations of mouse preptin were determined for 10 mM D-glucose concentration. After the stimulation, supernatants were collected from the cells and stored at −80°C before the measurement of insulin concentration.
# Radioimmunoassay (RIA) kits for the measurement of rat insulin (sensitive Rat Insulin RIA Kit, Cat. # SRI-13K) content in samples were provided by EMD Millipore Corporation and were used according to the manufacturer’s instructions. Each biological sample was measured in duplicate.
# [4] = tested on: hBMSC-TERT; assay: Osteoblast differentiation of hBMSC-TERT, alkaline phosphatase (ALP) activity assay; format: cell-based, human; details: summary in the conclusions
# Description: (§1) hBMSC-TERT were plated at a density of 20 000 cells/cm^2 (Alizarin Red S staining) and 5 000 cells/well (ALP activity assay) in MEM medium (Gibco), supplemented with 10 % FBS (Gibco) and 1 % P/S (Gibco). One day after seeding, the medium was replaced with OB induction medium, composed of basal medium, supplemented with 10 mM B-glycerophosphate (Sigma-Aldrich), 10 nM dexamethasone (Sigma-Aldrich), 50 μg/mL vitamin C (Sigma-Aldrich), 10 nM vitamin D3 (Sigma-Aldrich) and treated with 100 ng/ml, 500 ng/ml and 1 ug/ml IGF2, IGF1, IGF2, preptin or vehicle (acetic acid) as a control. The medium was changed every other day for 7 days (ALP activity assay) or 10 days (Alizarin Red S staining).
# ALP activity and cell viability assay were quantified at Day 7 of OB differentiation, in order to normalize the ALP activity data to the number of viable cells.
# Cell viability assay was measured using a Cell Titer-Blue Assay Reagent (Promega) at fluorescence intensity (579Ex/584Em). ALP activity was detected by absorbance at 405 nm, using p-nitrophenyl phosphate (Sigma-Aldrich) as substrate.
# [5] = tested on: human primary osteoblasts; details: 8 days, ref [17] Bosetti et al.; cited from earlier work
# [6] = tested on: hBMSC-TERT; assay: Osteoblast differentiation of hBMSC-TERT, Alizarin Red S staining; format: cell-based, human; details: increasing concentrations; day 10 of OB differentiation; compared to effects of IGF2 and preptin
# Description: as §1
# Mineralized matrix formation at Day 10 of OB differentiation was measured, using Alizarin Red S staining. Cells were fixed with 70 % ice-cold ethanol for 1 h at -20°C, before addition of Alizarin Red S Solution (AR-S) (Sigma-Aldrich). The cells were stained for 10 min at room temperature (RT). Excess dye was washed with distilled water and with phosphate buffered saline (PBS) (Gibco) to reduce nonspecific AR-S stain.
substance,measurement,setting,value
"DVSTSQAVLPDDFPRYPVGKFFKFDTWRQSAGRL [peptide 19, native rat preptin]",changes in intracellular calcium relative to non-stimulated cells,[1],significant increase in intracellular calcium levels
same,increase of insulin secretion,[2],able to increase insulin secretion
"DVSTSQAVLPDDFPRYPVGKFFQYDTWRQSAGRL [peptide 14, native mouse preptin]",stimulation of insulin secretion,[3],did not observe a significant increase in insulin secretion
"IGF1: insulin-like growth factor 1, comparator hormone",osteoblast differentiation of hBMSCs,[4],only significant changes observed for IGF1
same,change in ALP activity,[5],only significant change in ALP activity
same,Alizarin S staining of calcified matrix,[6],largest changes
